Source: PubChem BioAssay (NCI)
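Tested at 5 concentrations; 48 h exposure; 96-well plates; endpoints linearly interpolated, else capped at highest concentration. GI50 is the concentration that inhibits growth by half. The concentration for full growth arrest is given as TGI.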

What was measured:
Experiment in all cases: growth of human tumour cells (NCI), 48 h
[1] = tested on: BT-549 breast
[2] = tested on: T-47D breast
[3] = tested on: SF-295 CNS
[4] = tested on: COLO 205 colon
[5] = tested on: TK-10 renal
[6] = tested on: HL-60(TB) leukemia
[7] = tested on: MDA-MB-231 breast
[8] = tested on: CAKI-1 renal
[9] = tested on: A498 renal
[10] = tested on: M14 melanoma

Row | Structure (SMILES) | GI50 [1] [µM] | TGI [1] [µM] | GI50 [2] [µM] | TGI [2] [µM] | GI50 [3] [µM] | TGI [3] [µM] | GI50 [4] [µM] | TGI [4] [µM] | GI50 [5] [µM] | TGI [5] [µM] | GI50 [6] [µM] | TGI [6] [µM] | GI50 [7] [µM] | TGI [7] [µM] | GI50 [8] [µM] | TGI [8] [µM] | GI50 [9] [µM] | TGI [9] [µM] | GI50 [10] [µM] | TGI [10] [µM]
1 | CCCN(CCS(C)(=O)=O)Cc1ccc(-c2ccc3ncnc(Nc4ccc(OCc5cccc(F)c5)c(Cl)c4)c3c2)o1 | > 25 | > 25 | 1.82 | 24.7 | > 25 | > 25 | > 25 | > 25 | 0.175 | > 25 | 8.14 | > 25 | > 25 | > 25 | 0.997 | > 25 | > 13.6 | > 25 | > 25 | > 25
2 | COc1cc2c(cc1C1COc3cc4occc4cc3C1=O)OCO2 (stereo not given) |  | > 100 |  | > 100 |  | > 100 |  | > 100 |  | > 100 |  |  |  | > 100 |  | > 100 |  | > 100 |  | > 100
3 | COc1cc(N2C(=O)[C@H](O)C2c2ccc(SC)cc2)cc(OC)c1OC (stereo not given in full) | < 0.01 | 0.0835 |  |  | < 0.01 | 26.1 | 0.0101 | 0.0357 | 23.2 | > 100 | 0.0106 | 0.0448 | 0.0235 | > 100 | < 0.01 | > 100 | < 0.01 | 0.0882 | < 0.01 | 0.0198
4 | CC#CCC1CCC(OCC)=CC1=O (stereo not given) |  |  |  |  |  | > 100 |  | > 100 |  | > 100 |  | > 100 |  |  |  | > 100 |  |  |  | > 100
5 | C/C(=C\c1ccc2ccccc2c1)[N+](=O)[O-] | 2.24 | 4.57 |  |  | 13.1 | 27.6 | 2.07 | 4.36 |  |  | 2.03 | 5.49 | 2.02 | 3.92 | 1.92 | 4.05 | 8.63 | 20.9 | 2.2 | 4.94
6 | N#CC(C#N)=C1NC(=O)CC(=O)N1 |  |  |  |  |  | > 100 |  | > 100 |  | > 100 |  | > 100 |  |  |  | > 100 |  | > 100 |  | > 100
7 | N#Cc1c(N2CCOCC2)nc(=S)[nH]c1-c1ccco1 | 3.15 | 18.1 | 1.3 | 5.91 |  |  | 5.7 | 70.3 | 5.35 | 39.7 | 4.26 | > 100 | 4.63 | > 100 | 3.77 | 62.4 | 1.19 | 7.23 | 12.2 | > 100
8 | COc1ccc(-c2[nH]c3ccccc3c2-c2ccc(OC)cc2)cc1 |  |  | 3.28 | 20.6 | 3.33 | 14 | 4.13 | 16.8 | 12.6 | 41 | 2.03 | 6.03 | 4.69 | 23.5 | 3.67 | 17.1 | 4 | 12.8 | 3.9 | 14.8
9 | O=C1c2c(c3c4ccccc4[nH]c3c3ccc4ccccc4c23)C(=O)N1CCN1CCNCC1 | 1.58 | 2.97 |  |  | 1.85 | 3.42 | 1.78 | 3.6 | 1.77 | 3.24 | 1.61 | 3.5 | 1.72 | 3.27 | 1.37 | 2.69 | 4.19 | 19.6 | 1.67 | 3.24
10 | O=C(NN1C(=O)CSC12CCCCC2)c1[nH]c2ccc(Br)cc2c1-c1ccccc1 | 20.1 | 44.4 | 27.9 | > 100 | 16.2 | 31.9 | 26.9 | > 100 | 17 | 33.2 |  |  | 20.4 | 42.3 | 25.5 | 80 | 24.1 | 60.5 | 27 | 79.7
11 | COc1ccc(-c2cc(-c3ccc(C)cc3)nc3nc(=S)[nH]c(N)c23)cc1 | 27.1 | 60.4 | 14.8 | 97.5 | 15.9 | 34.9 | 26.8 | 91.6 | 22.8 | 57.5 |  |  | 19.5 | 48.3 | 23.2 | 54.2 | 19.2 | 39.4 | 19.1 | 37.4
12 | COc1cccc(OC(=O)c2ccc(C(F)(F)F)nc2Nc2cc(Cl)ccc2C)c1 | 7.63 | 41.7 | 2.82 | > 100 | 23.9 | 48.2 | 4.04 | > 100 | 30.7 | 92 |  |  | 2.76 | 15.7 | 17.6 | 36.1 | 4.19 | 20.9 | 19.3 | 56.6
13 | COc1ccc(C=O)c([N+](=O)[O-])c1 |  |  |  |  |  | 64.9 |  | > 100 |  | > 100 |  | 23.6 |  |  |  |  |  | > 100 |  | > 100
14 | O=C1/C(=C/c2ccccc2[N+](=O)[O-])Cc2ccccc21 | 1.83 | 4.49 | 2.22 | > 100 |  |  | 1.3 | 2.57 | 3.14 | 7.1 | 2.85 | 7.12 | 1.7 | 6.2 | 3.13 | > 100 | 2.17 | 5.36 | 1.97 | 3.96
15 | N#CC(=C1C=CC(=NO)C=C1)c1ccc(Cl)cc1 |  |  |  |  |  | 48 |  | 34.5 |  | 75 |  | 9.6 |  |  |  | 29 |  | > 100 |  | 41.5
